Results: patent US10392398B2, “Inhibitors of Late SV40 Factor (LSF) as cancer chemotherapeutics” (TRUSTEES OF BOSTON UNIVERSITY, priority 2010, dated 2019)

Key:
[1] = test system: primary mouse hepatocytes; assay: Primary mouse hepatocytes, growth and toxicity; format: cell-based
Source text: Averages with SEM of three experiments are shown. *P<0.05, by one-tailed t-test. […] The cells were imaged separately for TUNEL-positivity and DNA at the top. Below: Merged images; green for TUNEL (Terminal deoxynucleotidyl transferase dUTP nick end labeling) staining, blue for DAPI (4′,6-diamidino-2-phenylindole) staining. […] Binucleate cells are common for adult hepatocytes.

cancer cell lines = assay: Inhibition of growth of cancer cell lines in vitro (FIGS. 9 and 10); format: cell-based; details: 0.2-33 μM
Experimental: FIG. 9A-9K show the results of inhibition of growth of cancer cell lines in vitro by FQI1 (Formula (IV)). The effect of inhibition of cell growth (represented as a fraction of 1) of increasing concentrations of FQI1 between 0.2-33 μM is shown.
The effect of inhibition of cell growth (represented as a fraction of 1) of increasing concentrations of FQI2 between 0.2-33 μM is shown.

LSF [2] = target: T1, LSF (Homo sapiens, UniProt Q12800); assay: Chromatin immunoprecipitation of myc-LSF-HA binding to the endogenous POLA1 promoter; format: cell-based; set-up: expressed in transfected cells; details: human cell line
T1 sequence (Q12800 1-502): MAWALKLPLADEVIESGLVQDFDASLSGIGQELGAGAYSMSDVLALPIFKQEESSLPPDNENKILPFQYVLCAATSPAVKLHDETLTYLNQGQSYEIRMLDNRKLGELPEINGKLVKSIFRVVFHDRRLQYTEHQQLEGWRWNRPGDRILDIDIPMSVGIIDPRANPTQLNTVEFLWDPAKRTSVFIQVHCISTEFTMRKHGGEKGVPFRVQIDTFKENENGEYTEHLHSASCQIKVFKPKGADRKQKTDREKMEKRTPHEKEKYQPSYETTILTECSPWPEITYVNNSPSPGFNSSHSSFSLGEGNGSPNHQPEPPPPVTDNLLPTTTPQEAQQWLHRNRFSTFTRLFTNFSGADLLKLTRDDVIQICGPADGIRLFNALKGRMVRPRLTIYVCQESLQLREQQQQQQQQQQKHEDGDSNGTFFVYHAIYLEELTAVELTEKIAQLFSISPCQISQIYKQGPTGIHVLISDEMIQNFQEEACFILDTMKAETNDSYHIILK
Experimental: USF-dependent reporter assays were performed with FQI1 only. Averages with standard deviation (SD) derive from 3-4 independent experiments. […] “−LSF”: translation extract with no programmed LSF. […] Myc-LSF-HA expression was induced with the small molecule inducer RSL1. In induced cells, FQI1 or vehicle was added for the final 12 h of myc-LSF-HA induction.

LBP1a/b = assay: Cellular Thermal Shift Assay (CETSA), LBP1a/b; format: binding; details: QGY-7703 lysate, 500 μM
Experimental: (§1) Drug-target engagement was assessed using CETSA as described by Molina et al. (Monitoring Drug-Target Engagement in Cells and Tissues Using Cellular Thermal Shift Assay. Science (2013) 341, 84-87). QGY-7703 cells were cultured at 37° C. in 5% CO2 in DMEM (Dulbecco's modification of Eagle's Medium; Corning) supplemented with 10% Fetal Bovine Serum (FBS; Invitrogen). Cells were seeded into 10 cm plates and allowed to reach 60-80% confluency. After trypsinization (0.05% Trypsin-EDTA, Invitrogen), cell pellet was washed twice with ice-cold 1×PBS (137 mM NaCl, 2.7 mM KCl, 10 mM Na2HPO4, 2 mM KH2PO4, pH 7.2). Cell pellet was lysed by addition of 200 μL freshly prepared ice-cold RIPA buffer (10 mM Tris-Cl pH 8.0, 1 mM EDTA, 0.5 mM EGTA, 1% Triton X-100, 0.1% sodium deoxycholate, 0.1% SDS, 140 mM NaCl) supplemented with 1 mM Pefabloc (Sigma-Aldrich), and flash frozen in liquid nitrogen and thawed for a total of three cycles. Cell lysate was centrifuged at 20,000×g for 20 minutes to clarify. Supernatant was either treated immediately or saved at −80° C. for future use. […]
(§2) Immunoblots were quantified using Image J and graphed using GraphPad PRISM. Area-under-the-curve (AUC) for the quantified western blots were calculated with GraphPad PRISM and non-parametric t-test was calculated to determine statistical significance between the curves. […]

GRHL1 = target: T2, GRHL1 (Homo sapiens, UniProt Q9NZI5); assay: Cellular Thermal Shift Assay (CETSA), GRHL1; format: binding; details: QGY-7703 lysate, 500 μM
T2 construct: endogenous in cells; host or cells: QGY-7703 cell lysate
T2 sequence (Q9NZI5 1-618): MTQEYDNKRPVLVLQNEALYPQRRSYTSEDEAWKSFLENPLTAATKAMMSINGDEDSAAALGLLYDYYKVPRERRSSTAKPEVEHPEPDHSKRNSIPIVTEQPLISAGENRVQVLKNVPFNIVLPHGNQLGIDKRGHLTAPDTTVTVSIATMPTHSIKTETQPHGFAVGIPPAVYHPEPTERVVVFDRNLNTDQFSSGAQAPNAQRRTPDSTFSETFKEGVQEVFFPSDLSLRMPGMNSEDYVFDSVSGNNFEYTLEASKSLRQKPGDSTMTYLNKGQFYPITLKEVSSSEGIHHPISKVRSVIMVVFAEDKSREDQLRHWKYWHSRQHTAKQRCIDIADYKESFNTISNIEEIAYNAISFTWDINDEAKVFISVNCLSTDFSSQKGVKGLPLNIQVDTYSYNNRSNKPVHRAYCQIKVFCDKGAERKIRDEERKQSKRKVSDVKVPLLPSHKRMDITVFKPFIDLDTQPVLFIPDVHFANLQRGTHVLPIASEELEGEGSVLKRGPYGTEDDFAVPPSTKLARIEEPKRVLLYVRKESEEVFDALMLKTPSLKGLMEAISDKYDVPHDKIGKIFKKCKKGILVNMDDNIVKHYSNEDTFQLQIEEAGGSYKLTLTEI
Experimental: as §1, §2

LSF [3] = target: T1, LSF; assay: Cellular Thermal Shift Assay (CETSA), LSF; format: binding; set-up: expressed in transfected cells
Experimental: as §1, §2

SMILES	growth consequences or toxicity in primary non-dividing mouse hepatocytes [1]	growth of a variety of cancers, in vitro cell assay (cancer cell lines)	binding of inducible HA-tagged LSF to the POLA1 promoter (ChIP) (LSF [2])	binding to LBP1a/b by CETSA (LBP1a/b)	binding to GRHL1 by CETSA (GRHL1)	binding to LSF by CETSA (LSF [3]; QGY-7703 lysate, 500 μM)	LSF CETSA (LSF [3]; Table 5, YES/NO)
CCOc1ccccc1C1CC(=O)Nc2cc3c(cc21)OCO3 (racemic) [FQI1, 8-(2-ethoxyphenyl)-7,8-dihydro-[1,3]dioxolo[4,5-g]quinolin-6(5H)-one]	No growth consequences or toxicity	inhibit the growth of a variety of cancers	efficiently blocked				
CCOc1cc(N(C)C)ccc1C1CC(=O)Nc2cc3c(cc21)OCO3 (stereo not shown) [FQI-34, 8-(4-(dimethylamino)-2-ethoxyphenyl)-7,8-dihydro-[1,3]dioxolo[4,5-g]quinolin-6(5H)-one]				directly binds	does not bind	directly binds	YES
